Data as given in US4820715A, “Anti-emetic quinuclidinyl benzamides” (Bristol-Myers Company, priority 1987, dated 1989).
Structures can show the parent of a compound that is named as a salt. Where two headings read alike, the source gives them in different places.

What was measured:
[1] = system: Cisplatin-Induced Emesis; experiment: Antagonism of Cisplatin-Induced Emesis in the Ferret; format: in vivo, Fitch ferrets; details: Mustela putorius, iv, 4 h, read-out: Antagonism of Cisplatin-Induced Emesis in the Ferret, % Protection
From the text: The ventral and dorsal area of the neck is shaved and a 3 cm incision is made. The left jugular vein is exposed and ligated with a silk suture at the cephalic end. The indwelling catheter is constructed of Silastic tubing 18 cm in length (0.020 inch I.D.×0.037 inch O.D.) with a 2 cm polyethylene sleeve (0.045 inch I.D.×0.062 inch O.D.) filled with heparin (1000 units/ml) and sealed at the exposed end with a 23 gauge×1 inch needle crimped at both ends. A small cut is made in the jugular and the catheter inserted, allowing the free end to be delivered through a 13 gauge×5 cm trochar under the skin and attached to the nape of the neck with a silk suture. The ferrets are housed in individual cages and allowed 2-4 days recovery before testing. On the test day, the test compounds were administered i.v. […] The cisplatin solution was prepared by adding 70° C. physiological saline, stirring and sonicating until dissolved. The resulting solution (4 mg/ml) was maintained at 40° C. and administered i.v. ([…]) via the catheter. Following administration of cisplatin, the ferrets were observed continuously for four hours and emetic episodes recorded. Two or more emetic episodes within a one-minutes period was considered as a single episode. The ferrets were euthanized with T-61 i.v. at the termination of the experiment, and proper placement of the catheter was verified.

[2] = system: Apomorphine-Induced Emesis; experiment: Antagonism of Apomorphine-Induced Emesis in Dogs; format: in vivo, beagle dogs; details: Canis lupus familiaris, sc, read-out: Antagonism of Apomorphine-Induced Emesis in the Dog ED50
Experimental: Unfasted beagle dogs of both sexes were used as test subjects. Test compounds and apomorphine were each administered subcutaneously as aqueous solutions, with the test compound being administered 30 minutes prior to the administration of the apormorphine.
Apomorphine was administered at a dose of 0.3 mg/kg. […] All tests were run in at least two dogs.

[3] = system: field-stimulated guinea pig ileum; experiment: Gastrokinetic Activity: contraction of field-stimulated guinea pig ileum preparations; parameters: species or system guinea pig (Hartley); details: Cavia porcellus
Experimental: This activity is considered to be correlated with gastrokinetic (prokinetic) activity in vivo, i.e. enhancement of gastric motility and gastric emptying.
Normal, male guinea pigs (Hartley; Charles River) weighing […] are sacrificed by cervical dislocation. The terminal portion of the ileum was removed after discarding a 10 cm segment nearest to the ileocecal junction. The strips, 3-4 cm in length, were mounted in a 20 ml organ bath containing Krebs physiological buffer solution. The buffer was bubbled with 95% O2 -5% CO2 and kept at 37° C. The resting tension was adjusted to 1.0 g, and the tissues were equilibrated without stimulation for 15 minutes. For electrical stimulation, a platinum wire (cathode) was threaded up through the lumen and another platinum wire (anode) was attached to the glass rod that suspended the muscle. Tissues were stimulated coaxially at 1.5 times the voltage necessary to produce maximum twitch height, with single pulses, 0.5 msec in duration, delivered once every 10 seconds. After the 15 minute equilibration period (without stimulation), the stimulator (Grass S88 Stimulator) was turned on and the tissues were allowed to stabilize for approximately 1 hour, or until the twitch height remained constant, with washes every 20 minutes.

[4] = s.c. 30 minutes prior to apomorphine 0.3 mg/kg, dog

Structure (SMILES) | inhibition in vivo at 3 mg/kg ([1]; 3 mg/kg, i.v. × 2) | ED50 [2, 4] | other results
CCN(CC)CCNC(=O)c1cc(Cl)c(N)cc1OCC(C)=NO [Example 10, 4-Amino-5-chloro-N-[2-(diethylamino)ethyl]-2-[(2-hydroxyimino)propan-1-yl]oxybenzamide] | 100% | > 3 mg/kg | –
CCN(CC)CCNC(=O)c1cc(Cl)c(N)cc1OC(C)C(C)O (mixture of isomers) [Example 41, 4-Amino-5-chloro-N-[2-(diethylamino)ethyl]-2-[(2-hydroxy)but-3-yl]oxybenzamide (mixture of threo and erythro isomers)] | 81% | > 3 mg/kg | –
O=c1[nH]c2ccccc2n1CCCN1CCC(n2c(=O)[nH]c3cc(Cl)ccc32)CC1 [Domperidone, reference compound] | – | – | inhibition in vivo at 3 mg/kg [1]: 50%; ED50 [2]: 0.2 mg/kg
CCN(CC)CCNC(=O)c1cc(Cl)c(N)cc1OCC1COC(C)(C)O1 (stereo not drawn) [Example 18, 4-Amino-5-chloro-N-[2-(diethylamino)ethyl]-2-(2,2-dimethyl-1,3-dioxalan-4-yl)methoxybenzamide] | 72% | > 3 mg/kg | –
CCN(CC)CCNC(=O)c1cc(Cl)c(N)cc1OCCOC [Example 1, 4-Amino-5-chloro-N-[2-(diethylamino)ethyl]-2-(2-methoxyethoxy)benzamide] | 76% | > 3 mg/kg | –
CCN(CC)CCNC(=O)c1cc(Cl)c(N)cc1OCCC1(C)OCCO1 [Example 54] | 81% | > 3 mg/kg | –
CCN(CC)CCNC(=O)c1cc(Cl)c(N)cc1OCC1OCCO1 [Example 43] | 67% | > 3 mg/kg | –
CCN(CC)CCNC(=O)c1cc(Cl)c(N)cc1OCC(=O)Cc1ccccc1 [Example 30, 4-Amino-5-chloro-N-[2-(diethylamino)ethyl]-2-(3-phenyl-2-propanon-1-yl)oxybenzamide] | 100% | > 3 mg/kg | –
CCN(CC)CCNC(=O)c1cc(Cl)c(N)cc1OCc1ccccn1 [Example 45, 4-Amino-5-chloro-N-[2-(diethylamino)ethyl]-2-(2-pyridinomethyl)oxybenzamide] | 80% | > 3 mg/kg | –
CCC(=O)C(C)Oc1cc(N)c(Cl)cc1C(=O)NCCN(CC)CC.Cl (stereo not drawn) [Example 28, 4-Amino-5-chloro-2-(pentan-3-on-2-yl)oxy-N-(2-diethylaminoethyl)benzamide hydrochloride] | – | > 3 mg/kg | inhibition in vivo at 1 mg/kg ([1]; i.v. × 2): 82%
CCC(=O)COc1cc(N)c(Cl)cc1C(=O)NCCN(CC)CC [Example 26, 4-Amino-2-(2-butanon-1-yl)oxy-5-chloro-N-[2-(diethylamino)-ethyl]benzamide] | 90% | > 3 mg/kg | –
CCN(CC)CCNC(=O)c1cc(Cl)c(N)cc1OCC(=O)c1cccs1 [Example 52, 4-Amino-5-chloro-N-[2-(diethylamino)ethyl]-2-(2-thienoylmethoxy)benzamide] | 95% | > 3 mg/kg | –
CCN(CC)CCNC(=O)c1cc(Cl)c(N)cc1OC(C)(C)C(C)=O.O [Example 31, 4-Amino-5-chloro-N-[2-(diethylamino)ethyl]-2-[(3-methyl)butan-2-on-3-yl]oxybenzamide monohydrate] | – | > 3 mg/kg | inhibition in vivo at 1 mg/kg ([1]; i.v. × 2): 67%
CCN(CC)CCNC(=O)c1cc(Cl)c(N)cc1OCC(C)=O [Example 5, 4-Amino-5-chloro-N-[2-(diethylamino)ethyl]-2-(2-propanon-1-yl)oxybenzamide] | 90% | > 3 mg/kg | –
C=CCC(Oc1cc(N)c(Cl)cc1C(=O)NCCN(CC)CC)C(C)=O (stereo not drawn) [Example 24, 4-Amino-5-chloro-N-[2-(diethylamino)ethyl]-2-(5-hexan-2-on-3-yl)oxybenzamide hydrochloride] | 67% | > 3 mg/kg | –
CCC(Oc1cc(N)c(Cl)cc1C(=O)NCCN(CC)CC)C(C)=O (stereo not drawn) [Example 25, 4-Amino-5-chloro-N-[2-(diethylamino)ethyl]-2-(pentan-2-on-3-yl)oxybenzamide] | – | > 3 mg/kg | inhibition in vivo at 1 mg/kg ([1]; i.v. × 2): 58%
CCN(CC)CCNC(=O)c1cc(Cl)c(N)cc1OCC(OC)OC [Example 3, 4-Amino-5-chloro-N-[2-(diethylamino)ethyl]-2-(2,2-dimethoxyethoxy)benzamide] | 82% | > 3 mg/kg | –
CCN(CC)CCNC(=O)c1cc(Cl)c(N)cc1OCCO [Example 2, 4-Amino-5-chloro-N-[2-(diethylamino)ethyl]-2-(2-hydroxyethoxy)benzamide] | 68% | > 3 mg/kg | –
CCCC(=O)COc1cc(N)c(Cl)cc1C(=O)NCCN(CC)CC [Example 27, 4-Amino-5-chloro-N-[2-(diethylamino)ethyl]-2-(pentan-2-on-1-yl)oxybenzamide] | – | > 3 mg/kg | inhibition in vivo at 1 mg/kg ([1]; i.v. × 2): 90%
CCN(CC)CCNC(=O)c1cc(Cl)c(N)cc1OCC(=O)OC [Example 15, 4-Amino-5-chloro-N-[2-(diethylamino)ethyl]-2-(2-methoxy-2-oxoethoxy)benzamide] | 30% | > 3 mg/kg | –
CCN(CC)CCNC(=O)c1cc(Cl)c(N)cc1OCC(O)Cc1ccccc1 (stereo not drawn) [Example 33, 4-Amino-5-chloro-N-[2-(diethylamino)ethyl]-2-[2-(2-hydroxy-3-phenylpropyl)]oxybenzamide] | – | > 3 mg/kg | inhibition in vivo at 1 mg/kg ([1]; i.v. × 2): 54%
CCN(CC)CCNC(=O)c1cc(Cl)c(N)cc1OCC#N [Example 13, 4-Amino-5-chloro-2-cyanomethoxy-N-[2-(diethylamino)ethyl]benzamide] | 90% | > 3 mg/kg | –
CCN(CC)CCNC(=O)c1cc(Cl)c(N)cc1OC1CCCCC1=O (stereo not drawn) [Example 9, 4-Amino-5-chloro-2-(cyclohexanon-2-yl)oxy-N-[2-(diethylamino)ethyl]benzamide] | 100% | > 3 mg/kg | –
CN(C)CCNC(=O)c1cc(Cl)c(N)cc1O [Example 17, 4-Amino-5-chloro-N-[2-(dimethylamino)ethyl]-2-hydroxybenzamide] | – | – | activation at 10 µM ([3]; at 10 μM, read-out: Average % Maximum Increase): 41%; EC30 ([3]; effective concentration30, read-out: EC30 (95% C.L.)): 5.4 µM; EC50 ([3]; effective concentration50, read-out: EC50 (95% C.L.)): 15 µM; minimal effective concentration ([3]; read-out: Minimum Effective Concentration): 0.3 µM
CCN(CC)CCNC(=O)c1cc(Cl)c(N)cc1OCC(C)O (stereo not drawn) [Example 12, 4-Amino-5-chloro-N-[2-(diethylamino)ethyl]-2-(2-hydroxypropan-1-yl)oxybenzamide] | 86% | > 3 mg/kg | –
CCN(CC)CCNC(=O)c1cc(Cl)c(N)cc1OCC(=O)C(C)C [Example 29, 4-Amino-5-chloro-N-[2-(diethylamino)ethyl]-2-[(3-methyl)-butan-2-on-1-yl]oxybenzamide] | – | > 3 mg/kg | inhibition in vivo at 1 mg/kg ([1]; i.v. × 2): 44%
CCN(CC)CCNC(=O)c1cc(Cl)c(N)cc1OC(C)C(C)=O (stereo not drawn) [Example 7, 4-Amino-2-(butan-2-on-3-yl)oxy-5-chloro-N-[2-(diethylamino)ethyl]benzamide] | 95% | > 3 mg/kg | –
CCN(CC)CCNC(=O)c1cc(Cl)c(N)cc1OCCOCCOC [Example 46, 4-Amino-5-chloro-N-[2-(diethylamino)ethyl]-2-(2-methoxyethoxyethyl)oxybenzamide] | 76% | > 3 mg/kg | –
CCN(CC)CCNC(=O)c1cc(Cl)c(N)cc1OCC(=O)c1ccccc1 [Example 6, 4-Amino-2-(2-phenyl-2-oxoethoxy)-5-chloro-N-[2-(diethylamino)ethyl]benzamid] | 100% | > 3 mg/kg | –
